Experimental data: the NIST ThermoML archive (doi:10.1021/je025621h)

Details: Liquid

CCO [ethanol]
Details	vapor or sublimation pressure [kPa]
312.17 K	17
313.43 K	18.15
318.15 K	23.07
318.24 K	23.18
320.87 K	26.39
323.15 K	29.48
326.13 K	34
326.16 K	34.02
328.14 K	37.34
328.17 K	37.39
330.65 K	41.9
333.16 K	46.94
336.1 K	53.47
336.14 K	53.56
338.16 K	58.48
343.15 K	72.3
348.14 K	88.77
351.38 K	101.11
351.42 K	101.23

C1CCCCC1 [cyclohexane]
Details	vapor or sublimation pressure [kPa]
302.92 K	16.06
304.19 K	16.95
306.91 K	19.05
308.27 K	20.16
309.9 K	21.56
313.16 K	24.61
318.19 K	30.03
323.14 K	36.23
328.16 K	43.51
331.9 K	49.68
333.16 K	51.9
333.17 K	51.9
338.16 K	61.56
343.16 K	72.53
345.42 K	77.94
348.05 K	84.73

O [water]
Details	vapor or sublimation pressure [kPa]
327.13 K	15
328.16 K	15.75
330.78 K	17.85
333.15 K	19.94
335.82 K	22.53
338.15 K	25.02
340.67 K	27.98
343.16 K	31.21
346.13 K	35.42
348.14 K	38.55
353.14 K	47.36
358.14 K	57.79
